In patent US20220226337A1 (Gilead Sciences, Inc., priority 2018, published 2022):

What follows are molecules tested against T1, α4β7 integrin interaction with MadCAM-1 (RPMI8866 cells) (Homo sapiens, UniProt P13612+P26010) (assay: α4β7 Integrin Cell Capture Assay). Settings: capture of α4β7 integrin expressing RPMI8866 cells on recombinant MadCAM-1 extracellular domain-coated plate; 0.5 mM MnCl2.
T1 construct: α4β7 integrin expressing cells; endogenous in cells; host or cells: RPMI8866 cells
T1 sequence (P13612 34-1032): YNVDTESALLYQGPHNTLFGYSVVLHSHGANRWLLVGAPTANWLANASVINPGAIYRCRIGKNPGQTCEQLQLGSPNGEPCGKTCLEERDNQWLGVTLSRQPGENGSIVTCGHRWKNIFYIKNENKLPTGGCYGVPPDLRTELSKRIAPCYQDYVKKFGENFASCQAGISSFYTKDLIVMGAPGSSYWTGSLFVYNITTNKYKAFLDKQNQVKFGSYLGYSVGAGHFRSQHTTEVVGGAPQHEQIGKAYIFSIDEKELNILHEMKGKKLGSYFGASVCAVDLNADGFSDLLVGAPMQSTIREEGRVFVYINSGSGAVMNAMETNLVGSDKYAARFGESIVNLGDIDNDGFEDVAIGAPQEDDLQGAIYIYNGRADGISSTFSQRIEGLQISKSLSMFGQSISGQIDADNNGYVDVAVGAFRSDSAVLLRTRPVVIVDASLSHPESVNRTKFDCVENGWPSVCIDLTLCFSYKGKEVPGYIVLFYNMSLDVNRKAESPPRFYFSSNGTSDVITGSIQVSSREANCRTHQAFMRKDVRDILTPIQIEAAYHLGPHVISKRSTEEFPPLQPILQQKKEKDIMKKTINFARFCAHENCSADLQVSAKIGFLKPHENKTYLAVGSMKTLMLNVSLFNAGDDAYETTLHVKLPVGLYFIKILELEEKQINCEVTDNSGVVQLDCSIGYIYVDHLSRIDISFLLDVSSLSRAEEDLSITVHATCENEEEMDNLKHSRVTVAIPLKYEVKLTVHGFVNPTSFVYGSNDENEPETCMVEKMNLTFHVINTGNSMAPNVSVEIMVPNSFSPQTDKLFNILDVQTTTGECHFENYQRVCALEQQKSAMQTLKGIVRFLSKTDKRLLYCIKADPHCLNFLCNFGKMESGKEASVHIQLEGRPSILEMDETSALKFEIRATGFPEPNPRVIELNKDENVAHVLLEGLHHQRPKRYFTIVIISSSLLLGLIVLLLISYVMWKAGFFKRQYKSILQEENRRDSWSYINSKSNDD
T1 sequence (P26010 20-798): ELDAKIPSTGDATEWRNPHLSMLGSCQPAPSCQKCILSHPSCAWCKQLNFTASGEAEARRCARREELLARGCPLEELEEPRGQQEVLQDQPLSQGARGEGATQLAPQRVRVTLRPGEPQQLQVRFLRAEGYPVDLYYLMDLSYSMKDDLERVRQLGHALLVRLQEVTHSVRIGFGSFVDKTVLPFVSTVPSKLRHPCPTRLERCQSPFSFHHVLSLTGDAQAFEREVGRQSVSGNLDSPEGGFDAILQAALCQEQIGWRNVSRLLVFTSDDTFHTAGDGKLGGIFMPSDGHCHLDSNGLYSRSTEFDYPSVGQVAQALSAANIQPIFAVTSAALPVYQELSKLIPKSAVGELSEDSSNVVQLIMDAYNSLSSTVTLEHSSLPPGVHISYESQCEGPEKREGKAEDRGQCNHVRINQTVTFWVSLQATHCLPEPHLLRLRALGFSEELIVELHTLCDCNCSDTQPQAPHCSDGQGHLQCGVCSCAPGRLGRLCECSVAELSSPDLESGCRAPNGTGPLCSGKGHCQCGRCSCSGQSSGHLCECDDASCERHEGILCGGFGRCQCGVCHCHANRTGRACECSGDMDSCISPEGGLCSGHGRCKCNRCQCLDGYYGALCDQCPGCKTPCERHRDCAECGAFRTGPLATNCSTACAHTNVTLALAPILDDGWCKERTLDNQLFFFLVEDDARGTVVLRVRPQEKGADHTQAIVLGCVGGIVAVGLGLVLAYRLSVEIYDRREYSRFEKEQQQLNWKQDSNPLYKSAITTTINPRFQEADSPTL
Type: cell-based
Procedure: The potency of inhibitors in preventing α4β7 integrin interaction with MadCAM-1 was measured by monitoring the capture of α4β7 integrin expressing cells on a recombinant MadCAM-1 extracellular domain-coated plate. 384-well plates (Corning 3702) were coated with MadCAM-1 extracellular domain by dispensing 20 μL of MAdCAM-1 at 1.0 μg/mL per well and incubating overnight at 4° C. The plates were then washed with PBS and blocked with 3% BSA for 2 hours before being washed again. RPMI8866 cells were spun down and re-suspended in assay medium (DMEM+0.5% FBS+0.5 mM MnCl2) at a density of 0.5×10^6 cells/mL. The cells were then dispensed (60 μL/well) to a 384-well plate (Greiner 781280) that was previously spotted with 60 nL of test compound per well. The plates were incubated at 37° C. for 1 hour. 50 μL of cells were transferred to the blocked, MadCAM-1-coated plates and incubated for 30 minutes at 37° C. 10 μL of 12% glutaraldehyde containing Hoechst 33342 (0.06 mg/mL) was added to the cells (2% glutaraldehyde and 0.01 mg/mL final concentrations). The plates were incubated for 90 minutes at room temperature. The plates were then washed 3 times with 70 μL of PBS per well and imaged on a Cellomics ArrayScan instrument. The cells that were bound to the plate were counted and plotted against the compound concentration to determine the EC50 of the test compounds.

Structure (SMILES)	EC50 [nM]
CCc1nc(-c2ccc(C[C@H](NC(=O)c3c(F)cccc3F)C(=O)O)c3c2OCCO3)c(C(F)(F)F)c2ccccc12 [Example 3]	6.49
O=C(N[C@@H](Cc1ccc(-c2c(Cl)cc(F)cc2Cl)c2c1OCCO2)C(=O)O)c1c(F)cccc1F [Example 4, (S)-3-(8-(2,6-dichloro-4-fluorophenyl)-2,3-dihydrobenzo[b][1,4]dioxin-5-yl)-2-(2,6-difluorobenzamido)propanoic acid]	26.3
O=C(N[C@@H](Cc1ccc(-c2c(Cl)cc(F)cc2Cl)c2c1OCCO2)C(=O)O)c1c(F)cccc1OC(F)F [Example 6, (S)-3-(8-(2,6-dichloro-4-fluorophenyl)-2,3-dihydrobenzo[b][1,4]dioxin-5-yl)-2-(2-(difluoromethoxy)-6-fluorobenzamido)propanoic acid]	444
CC[C@@H](Nc1cc(F)c(C(=O)N[C@@H](Cc2ccc(-c3c(C)n(C)c(=O)n(C)c3=O)c3c2OCCO3)C(=O)O)c(F)c1)C(F)(F)F [Example 10, (S)-2-(2,6-difluoro-4-(((R)-1,1,1-trifluorobutan-2-yl)amino)benzamido)-3-(8-(1,3,6-trimethyl-2,4-dioxo-1,2,3,4-tetrahydropyrimidin-5-yl)-2,3-dihydrobenzo[b][1,4]dioxin-5-yl)propanoic acid]	0.864
COc1cc2ccccc2cc1-c1ccc(C[C@H](NC(=O)c2c(F)cccc2F)C(=O)O)c2c1OCCO2 [Example 11, (S)-2-(2,6-difluorobenzamido)-3-(8-(3-methoxynaphthalen-2-yl)-2,3-dihydrobenzo[b][1,4]dioxin-5-yl)propanoic acid]	29.3
O=C(N[C@@H](Cc1ccc(-c2ncc3ccccc3c2C(F)(F)F)c2c1OCCO2)C(=O)O)c1c(F)cccc1F [Example 12, (S)-2-(2,6-difluorobenzamido)-3-(8-(4-(trifluoromethyl)isoquinolin-3-yl)-2,3-dihydrobenzo[b][1,4]dioxin-5-yl)propanoic acid]	13.9
CC[C@@H](Nc1cc(F)c(C(=O)N[C@@H](Cc2ccc(-c3c(C(F)(F)F)cc(C)n(C)c3=O)c3c2COC3)C(=O)O)c(F)c1)C(F)(F)F [Example 13, (S)-2-(2,6-difluoro-4-(((R)-1,1,1-trifluorobutan-2-yl)amino)benzamido)-3-(7-(1,6-dimethyl-2-oxo-4-(trifluoromethyl)-1,2-dihydropyridin-3-yl)-1,3-dihydroisobenzofuran-4-yl)propanoic acid]	0.388
O=C(N[C@@H](Cc1ccc(-c2c(Cl)cc(F)cc2Cl)c2c1COC2)C(=O)O)c1c(F)cccc1F [Example 16, (S)-3-(7-(2,6-dichloro-4-fluorophenyl)-1,3-dihydroisobenzofuran-4-yl)-2-(2,6-difluorobenzamido)propanoic acid]	31.1
O=C(N[C@@H](Cc1ccc(-c2c(Cl)cc(F)cc2Cl)c2c1COC2)C(=O)O)c1c(Cl)cccc1Cl [Example 17, (S)-3-(7-(2,6-dichloro-4-fluorophenyl)-1,3-dihydroisobenzofuran-4-yl)-2-(2,6-dichlorobenzamido)propanoic acid]	127
Cc1c(-c2ccc(C[C@H](NC(=O)c3c(F)cccc3F)C(=O)O)c3c2COC3)c(=O)n(C)c(=O)n1C [Example 18, (S)-2-(2,6-difluorobenzamido)-3-(7-(1,3,6-trimethyl-2,4-dioxo-1,2,3,4-tetrahydropyrimidin-5-yl)-1,3-dihydroisobenzofuran-4-yl)propanoic acid]	5.22

More lines, in order of falling EC50, values ahead:

EC50 [nM]	Structure (SMILES)
55.4	O=C(N[C@@H](Cc1ccc(-c2c(Cl)cc(F)cc2Cl)c2c1OCCO2)C(=O)O)c1c(Cl)cccc1Cl [Example 5, (S)-3-(8-(2,6-dichloro-4-fluorophenyl)-2,3-dihydrobenzo[b][1,4]dioxin-5-yl)-2-(2,6-dichlorobenzamido)propanoic acid]
37.8	Cc1cccc(F)c1C(=O)N[C@@H](Cc1ccc(-c2c(Cl)cc(F)cc2Cl)c2c1OCCO2)C(=O)O [Example 7, (S)-3-(8-(2,6-dichloro-4-fluorophenyl)-2,3-dihydrobenzo[b][1,4]dioxin-5-yl)-2-(2-fluoro-6-methylbenzamido)propanoic acid]
3.76	Cc1nc(-c2ccc(C[C@H](NC(=O)c3c(F)cccc3F)C(=O)O)c3c2OCCO3)c(C(F)(F)F)c2ccccc12 [Example 2, (S)-2-(2,6-difluorobenzamido)-3-(8-(1-methyl-4-(trifluoromethyl)isoquinolin-3-yl)-2,3-dihydrobenzo[b][1,4]dioxin-5-yl)propanoic acid]
0.939	CC[C@@H](Nc1cc(F)c(C(=O)N[C@@H](Cc2ccc(-c3c(C)n(C)c(=O)n(C)c3=O)c3c2COC3)C(=O)O)c(F)c1)C(F)(F)F [Example 15, (S)-2-(2,6-difluoro-4-(((R)-1,1,1-trifluorobutan-2-yl)amino)benzamido)-3-(7-(1,3,6-trimethyl-2,4-dioxo-1,2,3,4-tetrahydropyrimidin-5-yl)-1,3-dihydroisobenzofuran-4-yl)propanoic acid]
0.38	Cc1c(-c2ccc(C[C@H](NC(=O)c3c(F)cc(N4CCOC[C@@H]4C(F)(F)F)cc3F)C(=O)O)c3c2COC3)c(=O)n(C)c(=O)n1C [Example 14, (S)-2-(2,6-difluoro-4-((R)-3-(trifluoromethyl)morpholino)benzamido)-3-(7-(1,3,6-trimethyl-2,4-dioxo-1,2,3,4-tetrahydropyrimidin-5-yl)-1,3-dihydroisobenzofuran-4-yl) propanoic acid]
0.242	Cc1cc(C(F)(F)F)c(-c2ccc(C[C@H](NC(=O)c3c(F)cc(N[C@H](C)C(F)(F)F)cc3F)C(=O)O)c3c2COC3)c(=O)n1C [Example 20, (S)-2-(2,6-difluoro-4-(((R)-1,1,1-trifluoropropan-2-yl)amino)benzamido)-3-(7-(1,6-dimethyl-2-oxo-4-(trifluoromethyl)-1,2-dihydropyridin-3-yl)-1,3-dihydroisobenzofuran-4-yl)propanoic acid]
0.193	Cc1cc(C(F)(F)F)c(-c2ccc(C[C@H](NC(=O)c3c(F)cc(N4CCOC[C@@H]4C(F)(F)F)cc3F)C(=O)O)c3c2COC3)c(=O)n1C [Example 19, (S)-2-(2,6-difluoro-4-((R)-3-(trifluoromethyl)morpholino)benzamido)-3-(7-(1,6-dimethyl-2-oxo-4-(trifluoromethyl)-1,2-dihydropyridin-3-yl)-1,3-dihydroisobenzofuran-4-yl)propanoic acid]
